The target of assay [1] is T1, HIV integrase (Human immunodeficiency virus type 1 group M subtype B, UniProt P04585). Briefly: biochemical. The settings on record: read-out: Inhibition of 3' processing activity (IC50).
In assay [2] the target is T1, HIV integrase. The assay can be described thus: biochemical. As to conditions: read-out: Inhibition of strand transfer (IC50).
The target in assay [3] is HIV reverse transcriptase (Human immunodeficiency virus type 1 group M subtype B, UniProt P03366). Briefly: Reverse transcriptase scintillation proximity assay (Example 4, Table 2). Format: biochemical. The settings on record: for remaining activity at 10 µM: 0.05 h, read-out: % RT activity remaining at 10 μM; for remaining activity at 10 µM / % RT activity remaining at 10 μM: 10 μM inhibitor, relative to dimethyl sulfoxide = 100%; for IC50: read-out: IC50 (RT activity); for % RT activity remaining at 10 μM: 3 min. The method, then: Reverse transcriptase ("RT") activity is measured using a scintillation proximity assay kit available from Amersham Life Sciences, Inc., which uses a biotin/streptavidin bead capture system. RNA-dependent polymerase activity is measured using purified […] and a synthetic 17mer/50mer RNA-DNA template-primer containing biotin at the 5' end of the DNA. The template-primer, buffer, dNTP, and inhibitor are incubated for 10 minutes at 37° C. before the RT is added. The final 100 μl reaction mixture contains: 39 nm of template primer, buffer (40 mM tris HCl at pH 8.0, 10 mM MgCl2, 60 mM KCl, 10 mM dithiothreitol); 75 nM of each dNTP except dTTP; 25 nM dTTP and 35 nM tritium labeled d*TTP; 10 μM inhibitor; and 1.0-2.0 μg of RT. After three minute incubation, the reaction is quenched with 40 μl of 0.56M EDTA. Then 10 μl of streptavidin SPA beads (in suspension) are added and incubated at 37° C. for 10 minutes. Finally, 850 μl of a buffer containing 10 mM Tris HCl pH 7.4 and 0.15M NaCl is added. The signal is produced by biotinylated polymers incorporating d*TTP binding to the streptavidin beads which stimulate the scintillant. The amount of d*TTP incorporated in the polymer is measured with a scintillation counter.
Compounds showing good inhibition will give a low number of counts/min (cpm). This number is related to a standard, dimethyl sulfoxide, which is given an arbitrary 100% relative activity. All cpm data in a single run are given a percent of this standard.
A general note: Scintillation proximity formats need no separation of bound from free tracer.

From patent US6140368A, “Naphthols useful in antiviral methods” (The Regents of the University of California, priority 1998, dated 2000) come the findings set out here.

The structures appear in SMILES notation. Where two headings read alike, the source gives them in different places. Where only a bound is given, the exact number is not on record here.

As a reminder, the IC50 is the concentration that gives 50% inhibition. As to `C=Cc1ccc(N=Nc2c(S(=O)(=O)O)cc3cc(NC(=O)Nc4ccc5c(O)c(N=Nc6ccc(C=C)cc6)c(S(=O)(=O)O)cc5c4)ccc3c2O)cc1` [Compound 74], the IC50 in assay [1] amounted to 2000 nM; in assay [2], 1500 nM. The matching figures for `O=C(O)CCC(NC(=O)c1ccc(N=Nc2c(S(=O)(=O)O)cc3cc(NC(=O)C(=O)Nc4ccc5c(O)c(N=Nc6ccc(C(=O)NC(CCC(=O)O)C(=O)O)cc6)c(S(=O)(=O)O)cc5c4)ccc3c2O)cc1)C(=O)O` (stereo not shown) [Compound 107]: 700 nM and 500 nM. The like results for `O=C(Nc1ccc2c(O)c(N=Nc3ccc(F)cc3)c(S(=O)(=O)O)cc2c1)Nc1ccc2c(O)c(N=Nc3ccc(F)cc3)c(S(=O)(=O)O)cc2c1` [Compound 69] were, in that order, 700 nM and 900 nM.

As to `COc1cc(N=Nc2c(S(=O)(=O)O)cc3cc(NC(=O)Nc4ccc5c(O)c(N=Nc6cc(OC)c(OC)c(OC)c6)c(S(=O)(=O)O)cc5c4)ccc3c2O)cc(OC)c1OC` [Compound 66], the figures for the IC50 in assay [1] and in assay [2] were 800 nM and 500 nM, respectively.

As to `CCOC(=O)c1c[nH]nc1N=Nc1c(S(=O)(=O)O)cc2cc(NC(=O)Nc3ccc4c(O)c(N=Nc5n[nH]cc5C(=O)OCC)c(S(=O)(=O)O)cc4c3)ccc2c1O` [Compound 64], the IC50 in assay [1] and in assay [2] was over 3000 nM in each case. Turning to `O=C(Nc1ccc2c(O)c(N=Nc3ncn[nH]3)c(S(=O)(=O)O)cc2c1)Nc1ccc2c(O)c(N=Nc3ncn[nH]3)c(S(=O)(=O)O)cc2c1` [Compound 65], the IC50 in assay [1] was determined as 800 nM; in assay [2], 500 nM. The like results for `O=C(Nc1ccc2c(O)c(N=Nc3ccc(C(=O)O)cc3)c(S(=O)(=O)O)cc2c1)Nc1ccc2c(O)c(N=Nc3ccc(C(=O)O)cc3)c(S(=O)(=O)O)cc2c1` [Compound 67] were, in that order, 90 nM and 250 nM.

In the case of `O=C(O)CC(C(=O)O)c1ccc(N=Nc2c(S(=O)(=O)O)cc3cc(NC(=O)C(=O)Nc4ccc5c(O)c(N=Nc6ccc(C(CC(=O)O)C(=O)O)cc6)c(S(=O)(=O)O)cc5c4)ccc3c2O)cc1` (stereo not shown) [Compound 97], the IC50 in assay [1] is 500 nM; in assay [2], 1000 nM. As for `O=C(Nc1ccc2c(O)c(N=Nc3ccc(I)cc3)c(S(=O)(=O)O)cc2c1)Nc1ccc2c(O)c(N=Nc3ccc(I)cc3)c(S(=O)(=O)O)cc2c1` [Compound 71], the results for the IC50 in assay [1] and in assay [2] were 900 nM and 1000 nM, respectively. The like results for `O=C(Nc1ccc2c(O)c(N=Nc3ccc(Cl)cc3)c(S(=O)(=O)O)cc2c1)Nc1ccc2c(O)c(N=Nc3ccc(Cl)cc3)c(S(=O)(=O)O)cc2c1` [Compound 70] were, in that order, over 3000 nM and over 3000 nM. The like results for `O=C(Nc1ccc2c(O)c(N=Nc3cc(C(=O)O)ccc3C(=O)O)c(S(=O)(=O)O)cc2c1)C(=O)Nc1ccc2c(O)c(N=Nc3cc(C(=O)O)ccc3C(=O)O)c(S(=O)(=O)O)cc2c1` [Compound 104] were, in that order, 600 nM and 400 nM. For the compound `COc1cc(C(=O)O)c(N=Nc2c(S(=O)(=O)O)cc3cc(NC(=O)C(=O)Nc4ccc5c(O)c(N=Nc6c(C(=O)O)cc(OC)c(OC)c6OC)c(S(=O)(=O)O)cc5c4)ccc3c2O)c(OC)c1OC` [Compound 102], the concentration for half-maximal inhibition (IC50) in assay [1] was 600 nM; in assay [2], 700 nM. The matching figures for `Cc1cc2nc(N=Nc3c(S(=O)(=O)O)cc4cc(NC(=O)C(=O)Nc5ccc6c(O)c(N=Nc7nc8cc(C)c(C)cc8[nH]7)c(S(=O)(=O)O)cc6c5)ccc4c3O)[nH]c2cc1C` [Compound 114]: 1000 nM and 300 nM. A word on the remaining activity: it is the signal under treatment as a percentage of the control signal. Consider `O=C(O)/C=C/c1ccc(N=Nc2c(S(=O)(=O)O)cc3cc(NC(=O)c4ccc(C(=O)Nc5ccc6c(O)c(N=Nc7ccc(/C=C/C(=O)O)cc7)c(S(=O)(=O)O)cc6c5)cc4)ccc3c2O)cc1` [Compound 161], for which the remaining activity at 10 µM in assay [3] was found to be 25%. Turning to `COc1cc(C(=O)O)ccc1N=Nc1c(S(=O)(=O)O)cc2cc(Nc3c(Nc4ccc5c(O)c(N=Nc6ccc(C(=O)O)cc6OC)c(S(=O)(=O)O)cc5c4)c(=O)c3=O)ccc2c1O` [Compound 193], the remaining activity at 10 µM in assay [3] turned out to be 0.4%.

In the case of `O=c1c(Nc2ccc3c(O)cc(S(=O)(=O)O)cc3c2)c(Nc2ccc3c(O)cc(S(=O)(=O)O)cc3c2)c1=O` [Compound 184], the IC50 in assay [3] amounted to 1000 nM. On the same count and under the same terms, the result for `O=C(O)/C=C/c1ccc(N=Nc2c(S(=O)(=O)O)cc3ccc(NC(=O)Nc4ccc5cc(S(=O)(=O)O)c(N=Nc6ccc(/C=C/C(=O)O)cc6)c(O)c5c4)cc3c2O)cc1` [Compound 86] reads 1200 nM. With `COc1cc(N=Nc2c(S(=O)(=O)O)cc3cc(NC(=O)c4ccc(C(=O)Nc5ccc6c(O)c(N=Nc7cc(OC)c(OC)c(OC)c7)c(S(=O)(=O)O)cc6c5)cc4)ccc3c2O)cc(OC)c1OC` [Compound 175], in assay [3], the remaining activity at 10 µM came out at 62%. Same read-out and setting: with `O=C(O)CC(C(=O)O)c1ccc(N=Nc2c(S(=O)(=O)O)cc3cc(Nc4c(Nc5ccc6c(O)c(N=Nc7ccc(C(CC(=O)O)C(=O)O)cc7)c(S(=O)(=O)O)cc6c5)c(=O)c4=O)ccc3c2O)cc1` (stereo not shown) [Compound 191] the figure was 0.3%; with `O=C(O)CCCc1ccc(N=Nc2c(S(=O)(=O)O)cc3cc(NC(=O)c4ccc(C(=O)Nc5ccc6c(O)c(N=Nc7ccc(CCCC(=O)O)cc7)c(S(=O)(=O)O)cc6c5)cc4)ccc3c2O)cc1` [Compound 165], 3.7%. As for `O=C(O)c1ccc(N=Nc2c(S(=O)(=O)O)cc3cc(NC(=O)c4cccc(C(=O)Nc5ccc6c(O)c(N=Nc7ccc(C(=O)O)cc7)c(S(=O)(=O)O)cc6c5)n4)ccc3c2O)cc1` [Compound 127], the “% RT activity remaining at 10 μM” value in assay [3] is given as “.14%”. Consider `O=C(Nc1ccc2c(O)c(N=Nc3ccc(Cl)cc3)c(S(=O)(=O)O)cc2c1)c1ccc(C(=O)Nc2ccc3c(O)c(N=Nc4ccc(Cl)cc4)c(S(=O)(=O)O)cc3c2)cc1` [Compound 181], for which, in assay [3], the remaining activity at 10 µM came to 43%. In the case of `COC(=O)C(Cc1c[nH]c2ccccc12)NC(=O)Nc1ccc2c(O)cc(S(=O)(=O)O)cc2c1` (stereo not shown) [Compound 17], the remaining activity at 10 µM in assay [3] came to 82%. Still for that read-out and setting: with `O=C(O)Cc1ccc(N=Nc2c(S(=O)(=O)O)cc3cc(Nc4c(Nc5ccc6c(O)c(N=Nc7ccc(CC(=O)O)cc7)c(S(=O)(=O)O)cc6c5)c(=O)c4=O)ccc3c2O)cc1` [Compound 187] the figure was 0.3%; with `CC(=O)Nc1ccc(N=Nc2c(S(=O)(=O)O)cc3cc(NC(=O)c4ccc(C(=O)Nc5ccc6c(O)c(N=Nc7ccc(NC(C)=O)cc7)c(S(=O)(=O)O)cc6c5)cc4)ccc3c2O)cc1` [Compound 174], 28%.

Consider `O=C(O)c1ccc(N=Nc2c(S(=O)(=O)O)cc3cc(NC(=O)c4ccc(C(=O)Nc5ccc6c(O)c(N=Nc7ccc(C(=O)O)cc7)c(S(=O)(=O)O)cc6c5)cc4)ccc3c2O)cc1` [Compound 169], for which the “% RT activity remaining at 10 μM” value in assay [3] was “.15%”. For `CCOC(=O)c1ccc(N=Nc2c(S(=O)(=O)O)cc3ccc(NC(=O)Nc4ccc5cc(S(=O)(=O)O)c(N=Nc6ccc(C(=O)OCC)cc6)c(O)c5c4)cc3c2O)cc1` [Compound 84], the remaining activity at 10 µM in assay [3] was found to be 1.7%.

As for `COc1cc(C(=O)O)ccc1N=Nc1c(S(=O)(=O)O)cc2cc(NC(=O)c3cc(O)cc(C(=O)Nc4ccc5c(O)c(N=Nc6ccc(C(=O)O)cc6OC)c(S(=O)(=O)O)cc5c4)n3)ccc2c1O` [Compound 153], the remaining activity at 10 µM in assay [3] is 0.15%. On the same count and under the same terms, with `COC(=O)c1ccccc1NC(=O)Nc1ccc2c(O)cc(S(=O)(=O)O)cc2c1` [Compound 29] the figure was 108%; with `O=C(Nc1ccc2c(O)cc(S(=O)(=O)O)cc2c1)c1cc(=O)cc(C(=O)Nc2ccc3c(O)cc(S(=O)(=O)O)cc3c2)o1` [Compound 131], 48%.
